Earlier results, collected in patent EP3957364A1, “A BINDING MOLECULE SPECIFICALLY BINDING TO HUMAN CD4 FOR USE IN THE TREATMENT OF PULMONARY DISEASES” (Fraunhofer-Gesellschaft zur Förderung der angewandten …, priority 2020, dated 2022).

Molecular target: CD4 (Homo sapiens, UniProt P01730)
Conditions: reported, no source named

Question: Which “inhibition of CD4 binding of gp120 and MAX.16H5 IgG1 (or 16H5.chimlgG4)” value does the source give for TbYICbEbVEDQKAcEE here?
Answer: Its value is “inhibit CD4 binding of both gp120 and MAX.16H5 IgG1”.
